The structures appear in SMILES notation. Some results are limits rather than exact numbers.

As a reminder, the IC50 is the midpoint of a concentration-inhibition curve.

Chain of GST-tagged recombinant human RIP2 (O43353 whole entry): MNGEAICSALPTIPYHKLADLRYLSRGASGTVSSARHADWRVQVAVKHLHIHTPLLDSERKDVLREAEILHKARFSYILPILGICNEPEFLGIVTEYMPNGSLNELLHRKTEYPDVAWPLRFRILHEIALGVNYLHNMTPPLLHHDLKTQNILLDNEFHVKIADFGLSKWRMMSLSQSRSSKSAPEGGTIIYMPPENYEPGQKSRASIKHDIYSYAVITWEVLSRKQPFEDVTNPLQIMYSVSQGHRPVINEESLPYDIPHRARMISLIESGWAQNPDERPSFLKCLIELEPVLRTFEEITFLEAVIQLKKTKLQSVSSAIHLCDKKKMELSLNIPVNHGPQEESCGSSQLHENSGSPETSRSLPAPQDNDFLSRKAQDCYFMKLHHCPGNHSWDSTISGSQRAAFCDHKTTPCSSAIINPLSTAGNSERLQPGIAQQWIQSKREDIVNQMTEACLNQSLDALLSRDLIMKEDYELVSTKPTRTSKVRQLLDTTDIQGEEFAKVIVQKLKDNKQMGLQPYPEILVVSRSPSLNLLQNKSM

The experiment deals with GST-tagged recombinant human RIP2 (Homo sapiens (Human), UniProt O43353). The experiment is described as follows: RIP2 Kinase Assay (ADP-Glo). The class given is biochemical. As to conditions: in vitro kinase activity, ATP 25 μM. The procedure:
GST-tagged recombinant human RIP2 (25 ng) is incubated with 5 μL of compounds (0.5% DMSO), 5 μL of MBP (0.5 μg/μl) and 5 μL of ATP (25 μM) in buffer (40 mM Tris, 7.5; 20 mM MgCl2; 0.1 mg/ml BSA; 50 μM DTT). The assay was started by incubating the reaction mixture in a 96-well plate at 30° C. for 60 minutes. After the incubation, 25 μL ADP-Glo reagent was added, and the reaction was incubated at 30° C. for 40 minutes to stop the reaction and degrade residual ATP. The ADP product was then converted to ATP by adding 50 μL per well of detection reagent. Luminescence was detected after 30 minutes room temperature incubation with the Molecular device I3X plate reader. The IC50 values were calculated from a series of percent inhibition values determined at a range of inhibitor concentration using software routines as implemented in the GraphPad Prism 7 software and SigmaPlot 13.0.
For orientation: In ADP-Glo the light output rises with the ADP produced.
In the case of `CN1CCN(c2cccc(-c3ccc4nc(N)c(C(=O)[C@@H]5C[C@@H]5F)n4c3)c2)CC1` [Example 56], the IC50 lay in the range of 101 to 500 nM.

For the molecule `Nc1nc2ccc(-c3ccc4cc[nH]c4c3)cn2c1C(=O)[C@@H]1C[C@@H]1F` [Example 58], the IC50 is 1 to 100 nM.

Consider `Nc1nc2ccc(-c3cccc4cc[nH]c34)cn2c1C(=O)[C@@H]1C[C@@H]1F` [Example 59], for which the IC50 was in the range of 1 to 100 nM.

For `Cc1c(F)c(N(C)C)c2[nH]ncc2c1-c1ccc2nc(N)c(C(=O)[C@@H]3C[C@@H]3F)n2c1` [Example 61], the IC50 was in the range of 101 to 500 nM.

Consider `CSc1c(F)c(C)c(-c2ccc3nc(N)c(C(=O)[C@@H]4C[C@@H]4F)n3c2)c2cn[nH]c12` [Example 62], for which the IC50 fell in the range of 101 to 500 nM.

Turning to `Nc1nc2ccc(-c3ccc4occc4c3)cn2c1C(=O)[C@@H]1C[C@@H]1F` [Example 63], the IC50 lay within 1 to 100 nM.

Regarding `CSc1c(F)c(Cl)c(-c2ccc3nc(N)c(C(=O)[C@@H]4C[C@@H]4F)n3c2)c2cn[nH]c12` [Example 66], the IC50 was in the range of 101 to 500 nM.

As to `Cc1c(F)cccc1-c1ccc2nc(NC(=O)OC(C)(C)C)c(C(=O)[C@@H]3C[C@@H]3F)n2c1` [Example 70, tert-butyl (6-(3-fluoro-2-methylphenyl)-3-((1S,2S)-2-fluorocyclopropane-1-carbonyl)imidazo[1,2-a]pyridin-2-yl)carbamate], the IC50 is more than 1000 nM.

As for `Cc1c(F)cccc1-c1ccc2nc(N3CCCC3)c(C(=O)[C@@H]3C[C@@H]3F)n2c1` [Example 71, (6-(3-fluoro-2-methylphenyl)-2-(pyrrolidin-1-yl)imidazo[1,2-a]pyridin-3-yl)((1S,2S)-2-fluorocyclopropyl)methanone], the IC50 is more than 1000 nM.

On to `Cc1cc(-c2ccc3nc(N)c(C(=O)[C@@H]4C[C@@H]4F)n3c2)sn1` [Example 72], for which the IC50 lay in the range of 101 to 500 nM.

Consider `Cc1c(F)cccc1-c1ccc2nc(N)c(C(=O)c3ncccn3)n2c1` [Example 76], for which the IC50 was 1 to 100 nM.

For the molecule `Cc1c(F)cccc1-c1ccc2nc(N)c(C(=O)c3ccncn3)n2c1` [Example 77], the concentration for half-maximal inhibition (IC50) was in the range of 101 to 500 nM.

With `Nc1nc2ccc(-c3cnc4[nH]ccc4c3)cn2c1C(=O)c1ccncn1` [Example 78], the IC50 fell in the range of 1 to 100 nM.

As to `Nc1nc2ccc(-c3ccc4[nH]ncc4c3)cn2c1C(=O)[C@@H]1C[C@@H]1F` [Example 80], the IC50 fell in the range of 1 to 100 nM.

As to `Nc1nc2ccc(-c3ccc4[nH]ncc4c3Cl)cn2c1C(=O)[C@@H]1C[C@@H]1F` [Example 81], the IC50 was in the range of 1 to 100 nM.

As to `CNCCNc1nc2ccc(-c3cccc(F)c3C)cn2c1C(=O)[C@@H]1C[C@@H]1F` [Example 87, (6-(3-fluoro-2-methylphenyl)-2-((2-(methylamino)ethyl)amino)imidazo[1,2-a]pyridin-3-yl)((1S,2S)-2-fluorocyclopropyl)methanone], the IC50 was more than 1000 nM.

For the molecule `CC(=O)Nc1nc2ccc(-c3cccc(F)c3C)cn2c1C(=O)[C@@H]1C[C@@H]1F` [Example 88, N-(6-(3-fluoro-2-methylphenyl)-3-((1S,2S)-2-fluorocyclopropane-1-carbonyl)imidazo[1,2-a]pyridin-2-yl)acetamide], the IC50 lay in the range of 101 to 500 nM.

Regarding `Nc1nc2ccc(-c3cnc4[nH]ccc4c3)cn2c1C(=O)C1CCNC1` (centres unmarked) [Example 91], the IC50 was 101 to 500 nM.

Regarding `Nc1nc2c(F)cc(-c3ccc4[nH]ccc4c3)cn2c1C(=O)[C@@H]1C[C@@H]1F` [Example 92], the half-maximal inhibitory concentration (IC50) is 101 to 500 nM.

Turning to `Cc1c(F)cccc1-c1ccc2nc(NCCN)c(C(=O)[C@@H]3C[C@@H]3F)n2c1` [Example 93], the IC50 is more than 1000 nM.

Take `Nc1nc2c(F)cc(-c3cccc4[nH]ccc34)cn2c1C(=O)[C@@H]1C[C@@H]1F` [Example 96]: the IC50 is 101 to 500 nM.

`Cc1c(-c2cc(F)c3nc(N)c(C(=O)[C@@H]4C[C@@H]4F)n3c2)cnc2[nH]ccc12` [Example 97]: the IC50 lay in the range of 1 to 100 nM.

For the molecule `CC(C)(C)OC(=O)n1cc(-c2ccc3nc(N)c(C(=O)[C@@H]4C[C@@H]4F)n3c2)c2ccccc21` [Example 98], the IC50 was more than 1000 nM.

Turning to `Cc1c(F)cccc1-c1cc(F)c2nc(N)c(C(=O)[C@@H]3C[C@@H]3F)n2c1` [Example 99, (2-amino-8-fluoro-6-(3-fluoro-2-methylphenyl)imidazo[1,2-a]pyridin-3-yl)((1S,2S)-2-fluorocyclopropyl)methanone], the IC50 lay within 101 to 500 nM.

Turning to `Nc1nc2ccc(-c3ccc4[nH]cnc4c3)cn2c1C(=O)[C@@H]1C[C@@H]1F` [Example 102], the IC50 lay within 1 to 100 nM.

For `Cc1c(-c2ccc3nc(N)c(C(=O)[C@@H]4C[C@@H]4F)n3c2)ccc2[nH]cnc12` [Example 103], the IC50 lay in the range of 101 to 500 nM.

For `Cc1c(-c2ccc3nc(N)c(C(=O)[C@@H]4C[C@@H]4F)n3c2)cnc2c1ccn2C` [Example 106], the IC50 was in the range of 101 to 500 nM.

On to `Cc1c(F)cccc1-c1ccc2nc(N)c(C(=O)N(C)C3CC3)n2c1` [Example 107, 2-amino-N-cyclopropyl-6-(3-fluoro-2-methylphenyl)-N-methylimidazo[1,2-a]pyridine-3-carboxamide], for which the IC50 was more than 1000 nM.

As for `Cc1c(F)cccc1-c1ccc2nc(N)c(C(=O)N[C@@H]3C[C@@H]3F)n2c1` [Example 108], the IC50 was 101 to 500 nM.

As for `Cc1c(F)cccc1-c1ccc2nc(N)c(C(=O)NC3CC3)n2c1` [Example 109], the IC50 fell in the range of 101 to 500 nM.

With `Nc1nc2ccc(-c3c[nH]c4ccc(Cl)cc34)cn2c1C(=O)[C@@H]1C[C@@H]1F` [Example 111], the IC50 was in the range of 101 to 500 nM.

With `CC(=O)NNC(=O)c1c(N)nc2ccc(-c3cccc(F)c3C)cn12` [Example 112, N′-acetyl-2-amino-6-(3-fluoro-2-methylphenyl)imidazo[1,2-a]pyridine-3-carbohydrazide], the IC50 was more than 1000 nM.

On to `Nc1nc2ccc(-c3cnc4ccccc4c3)cn2c1C(=O)[C@@H]1C[C@@H]1F` [Example 116], for which the IC50 lay in the range of 101 to 500 nM.

For `Nc1nc2ccc(-c3cncc4ccccc34)cn2c1C(=O)[C@@H]1C[C@@H]1F` [Example 117], the IC50 fell in the range of 1 to 100 nM.

On to `Cc1ccccc1-c1ccc2nc(N)c(C(=O)[C@@H]3C[C@@H]3F)n2c1` [Example 118], for which the IC50 was 1 to 100 nM.

For `Nc1nc2ccc(-c3ccccc3OCCF)cn2c1C(=O)[C@@H]1C[C@@H]1F` [Example 119], the half-inhibitory concentration (IC50) lay within 101 to 500 nM.

Take `Nc1nc2ccc(-c3cccc(F)c3OCCF)cn2c1C(=O)[C@@H]1C[C@@H]1F` [Example 120]: the IC50 lay in the range of 101 to 500 nM.

`CC(C)(C)OC(=O)n1cccc1-c1ccc2nc(N)c(C(=O)[C@@H]3C[C@@H]3F)n2c1` [Example 121]: the IC50 is more than 1000 nM.

For the molecule `CC(C)(C)OC(=O)n1ccc(-c2ccc3nc(N)c(C(=O)[C@@H]4C[C@@H]4F)n3c2)c1` [Example 122], the IC50 was more than 1000 nM.

On to `Nc1nc2ccc(-c3cccc(F)c3CCCO)cn2c1C(=O)[C@@H]1C[C@@H]1F` [Example 123], for which the IC50 lay within 101 to 500 nM.

On to `Nc1nc2ccc(-c3ccc[nH]3)cn2c1C(=O)[C@@H]1C[C@@H]1F` [Example 124], for which the IC50 was more than 1000 nM.

Consider `Nc1nc2ccc(-c3cc[nH]c3)cn2c1C(=O)[C@@H]1C[C@@H]1F` [Example 125], for which the IC50 is more than 1000 nM.

`Nc1nc2ccc(-c3cccc(F)c3CCO)cn2c1C(=O)[C@@H]1C[C@@H]1F` [Example 126]: the IC50 was more than 1000 nM.

As to `Nc1nc2ccc(-c3cccc(F)c3CO)cn2c1C(=O)[C@@H]1C[C@@H]1F` [Example 127], the IC50 is more than 1000 nM.

The values are drawn from patent publication US11744824B2, “2-amino-3-carbonyl imidazopyridine and pyrazolopyridine compounds” (1ST Biotherapeutics, Inc., priority 2020, dated 2023).
